Results from patent publication US4880014A, “Method for determining therapeutic drug dosage using bioelectrical resistance and reactance measurements” (priority 1988, dated 1989).
Several values for one entry are separate records, joined by “and”; a condition that tells them apart may be missing. Identical values can stand only once.

Key:
[1] = Theophylline pharmacokinetics in fifteen normal adult males from serum concentrations (Lagran), and dose calculated from measured Cl; format: in vivo, human
Excerpt: Fifteen normal adult males were used in the following study. Each subject was given a single intravenous dosage of theophylline.
Serial blood samples were obtained, for all fifteen patients, from an intravenous catheter placed in the arm.
F=1.0, assuming 100% oral absorption

[2] = Theophylline Cl, K and V predicted by bioelectrical impedance (multiple regression), and dose calculated from predicted Cl; set-up: species or system human; conditions: two-sided t-test
Excerpt: An excitation current of 800 microamps and frequency of 50 kHz was then applied and (R) and (Xc) values obtained.
The independent variables set forth in Table VII were used in a stepwise multiple linear regression program to produce the models of best definition for (Cl), (K) and (V) by entering each patients individual variables (Cl), (V) and (K) into the program. It then fits a linear least-squares regression model to the entire set of independent variables to identify the best independent variables and their coefficients for the description of the […] dependent variables (Cl), (K) and (V). Insignificant variables were dropped from the model. The equations generated are those set forth previously as Equation 3, Equation 4 and Equation 5.
Other internationally recognized programs could also be used and may include BMDP (Biomedical Data Processing) and SPSS (Statistical Programming for the Social Sciences).
In Table VIII, clearance (Cl), elimination rate constant (K), and volume of distribution (V), determined for theophylline using a multiple regression analysis produced F variable sequence defined in Tables VII and IX are shown in columns B, D, and F, respectively. Table VII is the model sequence used to solve for (Cl), (K) and (V) as derived by stepwise regression analysis. […]

[3] = human, in vivo, iv
Method: Twelve human subjects participated in the following study. The resistance (R) and the reactance (Xc) of each patient was measured using a four-terminal impedance plethysmograph. During the measurement, the subjects were placed in the supine position on an insulative surface. The electrodes were attached in the following manner. Those areas of the patient's skin where the electrodes were to be connected were cleaned thoroughly with alcohol. […]
The elimination rate constant was determined by nonlinear regression analysis of the serum concentration data for each patient using Micrononlin (Micrononlin, Elite Software, box 11223. Pittsburgh. PA 15238).
Volume of distribution was calculated by the Sawchuk-Zaske method.
(§1) Calculation of (K) and (V) from the measured serum concentration data was performed as were the dosage regimens using the measured serum concentration data by the equations of Sawchuk and Zaske which will be known to those skilled in the art.

[4] = Gentamicin K and V predicted by bioelectrical impedance (multiple regression), and dosage regimen calculated from predicted K, V; set-up: species or system human; conditions: two-sided T-test
Method: Twelve human subjects participated in the following study. The resistance (R) and the reactance (Xc) of each patient was measured using a four-terminal impedance plethysmograph. During the measurement, the subjects were placed in the supine position on an insulative surface. The electrodes were attached in the following manner. Those areas of the patient's skin where the electrodes were to be connected were cleaned thoroughly with alcohol. The four pre-gelled electrodes were then attached to the patient such that one current electrode was attached to the dorsal surface of the patient's right hand at the distal metacarpals, one current electrode was attached to the patient's right foot at the location of the distal metatarsals, one detector electrode was connected to the patients right wrist at the right pisiform prominence, and one detector electrode was connected to the patient's right ankle between the medial and lateral malleoli. An excitation current of 800 microamps and frequency of 50 kHz was then applied and R and Xc values obtained. […]
as §1

[5] = Simulation of gentamicin peak and trough serum concentrations for an average 70 kg patient; set-up: species or system human
Method: Serum concentrations were then simulated for an average 70 kg patient given a one-hour infusion of the dose to achieve a postdose serum concentration of 6.0 mcg/ml and a predose serum concentration of 1.0 mcg/ml. This simulation was performed with the values of (K) and (V) determined by measured serum concentrations and the calculated dosage regimen from these measured (K) and (V) values, is recorded, respectively, in columns A and B of Table VI. A simulation was also performed with the dosage regimen determined by the bioelectrical impedance analysis of the present invention, using the patient's actual measured (K) and (V), to test the prediction error of the method of dosing of the present invention. Equations A and B which were discussed earlier were used for calculating dosing interval and dose. The latter is recorded respectively in columns C and D of Table VI.

| Elimination Rate Constant (K), Meas., mean [3] | Serum concentrations for all twelve patients [3] | Comparison of K, V and dosage regimens, bioelectrical impedance vs measured serum concentration [4] | Comparison of postdose or predose concentrations simulated from measured K, V vs bioelectrical impedance K, V [5] | Compound | clearance ([1]; human, serum, iv, 4 mg/kg, mean of fifteen subjects, column A, read-out: Clearance (Cl), Meas., MEAN (converted)) | k el ([1]; human, serum, iv, 4 mg/kg, mean of fifteen subjects, column C, read-out: Elimination Rate Constant (K), Meas., MEAN (converted)) | Vd ([1]; human, serum, iv, 4 mg/kg, mean of fifteen subjects, column E, read-out: Volume of Distribution (V), Meas., MEAN) | Elimination Rate Constant (K), Meas. ([1]; individual patients (Pt. 1-15), single intravenous 4 mg/kg, 30 minute infusion, column C) | Comparison of K, V, Cl and dosage regimens, bioelectrical impedance vs measured serum concentrations [2] |
| --- | --- | --- | --- | --- | --- | --- | --- | --- | --- |
| – | – | – | – | Cn1c(=O)c2[nH]cnc2n(C)c1=O [theophylline] | 52.3 mL/min | 2.36e-05 s⁻¹ | 39.4 L | .0885 h and .0631 h and .0591 h and .0521 h and .0813 h and .0895 h and .1241 h and .0305 h and .1895 h and .0815 h and .0938 h and .0921 h and .0713 h and .0774 h | no statistically significant differences |
| .270 hr -1 | 2000 to 10000 ng/mL | no statistically significant differences | no statistically significant differences | gentamicin | – | – | – | – | – |
